Data published in paper PMC7916974 (Viruses, 2021).
Read-outs that look alike come from different tables or passages of the source.

Legend:
A/Weiss/43 H1N1 [1] = experiment: Infected mouse model: lung index, symptoms; assay type: in vivo, BALB/c mice; details: for clinical symptoms of infected mice: intragastric once a day for six days
A/California/2/2014 H3N2 = experiment: microbe, parasite or virus in culture; assay type: cell-based; details: Influenza A virus, H3N2, MDCK, 72 h
[2] = test system: pro-inflammatory cytokines (TNF-α, IL-1β, IL-6, and IL-8); experiment: Cytokine mRNA in lungs of infected mice (qRT-PCR); assay type: in vivo, BALB/c mice; details: two, four and six days post-infection
[3] = test system: A/Virginia/ATCC2/2009 H1N1; experiment: microbe, parasite or virus in culture; assay type: cell-based; details: Influenza A virus, MDCK, 72 h
A/Weiss/43 H1N1 [4] = experiment: microbe, parasite or virus in culture; details: Influenza A virus, H1N1, MDCK, 72 h, read-out: EC50 (50% effective concentration)
[5] = Cytotoxicity assay (MTT), MDCK cells; assay type: cell-based, canine; details: dog; for CC50 at 72 h: MDCK cells, MTT, read-out: CC50 (50% cytotoxic concentration)
A/Weiss/43 H1N1 [6] = test system: A/Weiss/43 H1N1
influenza A virus [7] = assay type: cell-based
[8] = test system: A/Weiss/43 H1N1-induced apoptosis in A549 cells; assay type: cell-based; details: 24 h post-infection
A/Weiss/43 H1N1 [9] = assay type: cell-based, influenza A virus; details: 6.25–100 µM
influenza A virus [10] = assay type: cell-based; remark: listed apart in the source
A/Weiss/43 H1N1 [11] = experiment: Viral NP mRNA in lungs of infected mice (qRT-PCR); assay type: in vivo, BALB/c mice; details: two, four and six days post-infection
[12] = test system: A549 cells infected with A/Weiss/43 H1N1; assay type: cell-based; details: 24 h
A/Weiss/43 H1N1 [13] = assay type: cell-based, influenza A virus
[14] = test system: A549 cells infected with A/Weiss/43 H1N1; assay type: cell-based; details: 24 h post-infection
IAV = experiment: microbe, parasite or virus in culture; assay type: cell-based; details: Influenza A virus, ATCC2|H1N1|H3N2, MDCK, read-out: EC50 values (range over IAV strains)
in vitro = assay type: cell-based; details: human
[15] = 50 mg/kg/d intragastric, six days post infection
[16] = 100 mg/kg/d intragastric, six days post infection

For `CCOC(=O)C1=C[C@@H](OC(CC)CC)[C@H](NC(C)=O)[C@@H](N)C1` [Oseltamivir, reference compound], the “Inhibition ratio of lung index” value (A/Weiss/43 H1N1 [1]; [15]) was 35.99%, the “Lung Index” value (A/Weiss/43 H1N1 [1]; [15]) was 1.09 ± 0.12 and the “clinical symptoms of infected mice” value (A/Weiss/43 H1N1 [1]) was “relieve these symptoms”. The “lung indexes versus virus control group (in words)” value (A/Weiss/43 H1N1 [1]; six days post infection) was “significantly lower than those in the virus control group”, the EC50 (A/California/2/2014 H3N2) was 9.47 ± 2.48 µM and the “expressions of pro-inflammatory cytokines in mouse lungs” value (“expressions” for short) [2] was “inhibit the increased expressions of pro-inflammatory cytokines”. The EC50 [3] was 6.97 ± 0.38 µM, the EC50 (A/Weiss/43 H1N1 [4]) was 0.57 ± 0.29 µM and the CC50 at 72 h [5] was > 800 µM. The “SI (ratio of CC50 to EC50)” value (A/Weiss/43 H1N1 [6]) was >1403.51.

In the case of `NC(=O)c1ncn([C@@H]2O[C@H](CO)[C@@H](O)[C@H]2O)n1` [Ribavirin], the “clinical symptoms of infected mice” value (A/Weiss/43 H1N1 [1]) is reported as “relieve these symptoms”, the EC50 (A/California/2/2014 H3N2) is reported as 13 ± 3.74 µM and the “expressions” value [2] is reported as “inhibit the increased expressions of pro-inflammatory cytokines”. The EC50 [3] was 13.9 ± 1.06 µM, the EC50 (A/Weiss/43 H1N1 [4]) was 22.2 ± 0.76 µM and the CC50 at 72 h [5] was 608 ± 34 µM.

In the case of `COC1=C(c2ccc(Cl)cc2)C(=O)OC1(C)COS(=O)(=O)Cc1ccccc1` (stereo not shown) [Compound 3D], the “levels of NP mRNA, time-of-addition” value (influenza A virus [7]) is reported as “significantly suppressed”, the apoptosis rate ([8]; 30 µM, infected A549 cells (virus control 32.85 ± 3.05%)) is reported as 21.93 ± 0.97% and the apoptosis rate ([8]; 50 µM, infected A549 cells) is reported as 15.17 ± 2.87%. The apoptosis rate ([8]; 80 µM, infected A549 cells) was 7.23 ± 1.30%, the “levels of NP mRNA in IAV-infected MDCK cells” value (A/Weiss/43 H1N1 [9]) was “decrease in the levels of NP mRNA” and the “inhibitory effect on viral replication, added before viral adsorption” value (influenza A virus [10]) was “almost no inhibitory effects”. For the same molecule, the “inhibitory effect, added during viral inoculation” value (influenza A virus [10]) was “slight inhibitory effect”, the “protective effect, added after viral adsorption” value (influenza A virus [10]) was “significant protective effect” and the “Inhibition ratio of lung index” value (A/Weiss/43 H1N1 [1]; 25 mg/kg/d intragastric, six days post infection) was 11.35%. The “Lung Index” value (A/Weiss/43 H1N1 [1]; 25 mg/kg/d intragastric, six days post infection (virus control 1.70 ± 0.06)) was 1.51 ± 0.06, the “Inhibition ratio of lung index” value (A/Weiss/43 H1N1 [1]; [15]) was 28.47% and the “Lung Index” value (A/Weiss/43 H1N1 [1]; [15]) was 1.22 ± 0.09. For the same molecule, the “Inhibition ratio of lung index” value (A/Weiss/43 H1N1 [1]; [16]) was 33.21%, the “Lung Index” value (A/Weiss/43 H1N1 [1]; [16]) was 1.14 ± 0.05 and the “clinical symptoms of infected mice” value (A/Weiss/43 H1N1 [1]) was “relieve these symptoms”. The “lung indexes versus virus control group (in words)” value (A/Weiss/43 H1N1 [1]; six days post infection) was “significantly lower than those in the virus control group”, the EC50 (A/California/2/2014 H3N2) was 24.1 ± 1.16 µM and the “expressions” value [2] was “inhibit the increased expressions of pro-inflammatory cytokines”. For the same molecule, the EC50 [3] was 18.1 ± 2.6 µM, the “expression of viral NP mRNA in IAV infected lungs” value (A/Weiss/43 H1N1 [11]) was “decreased the expression of viral NP mRNA in a dose-dependent manner” and the “expression of influenza M2 protein” value ([12]; 30, 50, 80 µM) was “inhibited”. The “IAV-induced upregulation of Bax/Bcl-2” value ([12]; A549 cells) was “reduced this upregulation”, the “virus titers of A549 cells” value (A/Weiss/43 H1N1 [13]) was “significantly decreased” and the EC50 (A/Weiss/43 H1N1 [4]) was 12.3 ± 0.53 µM. For the same molecule, the “mRNA expression of RIG-I, MAVS, TLR3, IRF3, IRF7” value [14] was “levels decreased”, the “mRNA expression of cytokines and chemokines (IL-1β, IL-6, IL-8, TNF-α)” value ([14]; dose-dependent) was “significantly decreased” and the viability at 72 h, 800 µM [5] was ~40%. The CC50 at 72 h [5] was 365 ± 1.58 µM, the EC50 (IAV) was 12.3 to 24.1 µM and the CC50 at 72 h (in vitro) was 309 ± 9.96 µM. For the same molecule, the viability at 72 h, 800 µM (in vitro) was ~40%, the “SI (ratio of CC50 to EC50)” value (A/Weiss/43 H1N1 [6]) was 29.68 and the “antiviral activity against A/Weiss/43 H1N1 (in words)” value (A/Weiss/43 H1N1 [6]) was “presented the antiviral activity”.
